“Also recorded” adds a separate entry of the source.
Tests used:
[1] = test system: primary microglial cells; assay: Microglial phagocytosis of FAM-labeled Aβ1-42; format: cell-based, mouse; conditions: 500 nM FAM-Aβ1-42
Protocol: (4A) Analysis of phagocytosis of primary microglia cells from wild type (wt) and iNOS deficient (iNOS (−/−)) mice exposed to 500 nM fibrillar FAM labeled Aβ1-42 peptide for up to 6 h.
Primary microglial cell cultures were prepared as previously described. Briefly, mixed glial cultures were prepared from newborn mice and cultured in DMEM supplemented with 10% FCS and 100 U ml^−1 penicillin/streptomycin. After 10-14 days of primary cultivation, microglial cells were harvested by shake off.
Microglial phagocytosis of FAM-labeled Aβ1-42 (FAM-Aβ) (Anaspec, San Diego, Calif.) was measured by plate based assay. Cells were plated at 50000 cells per well. After 1 h cells Aβ was added to a final concentration of 500 nM and incubated. Finally, the Aβ-containing medium was removed and extracellular Aβ was quenched with 100 μl 0.2% trypan blue in PBS pH 4.4 for 1 min. After aspiration fluorescence was measured at 485 nm excitation/535 nm emission using a Spectrafluor Plus reader (Tecan, Austria). To normalize for cell numbers 100 μl 50 μg/ml H33342 in PBS was added, incubated for 30 min and the fluorescence measured at 360 nm excitation/465 nm emission.

[2] = test system: APP/PS1 mice; assay: Eight arm radial maze test; format: in vivo, mouse
[3] = test system: APP/PS1 mice; assay: Brain extract Aβ immunoblot and Aβ1-40/Aβ1-42 ELISA; format: in vivo, mouse
[4] = test system: APP/PS1 mice; assay: Hippocampal LTP recording on brain slices of treated mice; format: in vivo, mouse
Description: (n=5+/−SEM) Right panel: Evaluation of the early (slope 1; […]; […]) of the amplitude of the mean fEPSP (n=5+/−SEM of ten minutes recordings, one-way ANOVA, Newman-Keuls post test, *p<0.05; **p<0.01; ***p<0.001) (2B) Determination of the slope of the mean fEPSP as in A. Right panel: Evaluation of the amplitude of the mean fEPSP (2C) Immunblot of brain homogenates and synaptosomal fractions in wild type and APP/PS1 animals at 12 month of age using an anti-S-nitrocystein specific antibody. (2D) Coomassie stain of anti-S-nitrocystein antibody precipitated synaptosomal fractions from wild type, APP/PS1, APP/PS1 iNOS (−/−) and APP/PS1 L-NIL mice separated by SDS-PAGE (2E) Protein sequence of Hsp75/mortalin. […]
Physiological recordings were performed on brain slices from 3 month old male and female mice, obtained after anesthetization with isoflurane and decapitation. […] Basal synaptic transmission (BST) was assessed by plotting the current (mA) against the peak amplitudes of fEPSP to generate input-output relations. Paired pulse facilitation (PPF) were recorded by applying interstimulus intervals of 30, 50, 75 and 100 ms. For long term potentiation (LTP) experiments a 15 min baseline were recorded with a interpulse interval of one minute at an intensity that evoked a response approximately 30% of maximum fEPSP. […]

[5] = target: T1, recombinant IDE (Homo sapiens, UniProt P14735); assay: Aβ degradation assay; format: biochemical; conditions: IDE preincubated with increasing concentration of Sin-1, then Aβ1-42 for 2 h
T1 construct: purchased R&D
T1 sequence (P14735 1-1019): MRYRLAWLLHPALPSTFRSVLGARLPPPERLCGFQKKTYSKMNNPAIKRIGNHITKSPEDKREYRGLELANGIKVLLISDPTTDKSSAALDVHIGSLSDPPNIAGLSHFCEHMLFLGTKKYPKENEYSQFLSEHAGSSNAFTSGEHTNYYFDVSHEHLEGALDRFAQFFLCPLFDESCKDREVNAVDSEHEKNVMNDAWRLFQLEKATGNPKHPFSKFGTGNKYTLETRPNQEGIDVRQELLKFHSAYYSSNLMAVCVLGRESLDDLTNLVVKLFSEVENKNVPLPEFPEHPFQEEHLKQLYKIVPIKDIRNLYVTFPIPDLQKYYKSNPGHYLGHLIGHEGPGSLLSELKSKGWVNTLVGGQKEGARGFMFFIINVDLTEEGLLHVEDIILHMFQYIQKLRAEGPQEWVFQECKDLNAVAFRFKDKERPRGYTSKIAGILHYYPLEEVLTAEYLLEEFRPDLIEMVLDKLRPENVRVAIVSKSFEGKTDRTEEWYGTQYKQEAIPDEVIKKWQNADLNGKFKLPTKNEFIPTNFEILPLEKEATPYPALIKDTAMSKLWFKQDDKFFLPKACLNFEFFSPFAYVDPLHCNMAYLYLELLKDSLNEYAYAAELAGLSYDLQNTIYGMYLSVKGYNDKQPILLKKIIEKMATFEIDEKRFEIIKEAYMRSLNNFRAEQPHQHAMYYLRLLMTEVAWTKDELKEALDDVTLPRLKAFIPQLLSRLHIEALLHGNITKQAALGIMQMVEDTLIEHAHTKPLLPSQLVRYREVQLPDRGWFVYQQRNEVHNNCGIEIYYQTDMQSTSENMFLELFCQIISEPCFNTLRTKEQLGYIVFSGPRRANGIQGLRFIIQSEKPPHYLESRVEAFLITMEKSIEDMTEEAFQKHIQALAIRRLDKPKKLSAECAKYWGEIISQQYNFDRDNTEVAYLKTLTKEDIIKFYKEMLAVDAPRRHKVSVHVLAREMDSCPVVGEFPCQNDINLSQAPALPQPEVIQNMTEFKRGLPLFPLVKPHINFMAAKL
Description: Samples were separated by 4-12% NuPAGE and immunoblotted using antibodies PC720 against IDE and 6E10 against Aβ (5E) RIPA fractions of 12 month wild type, APP/PS1 and APP/PS1 iNOS (−/−) animals were monitored for their ability to cleave a fluorgenic peptide substrate in the presence of the neprilysin inhibitor phosphoramidon (n=4+/−SEM, one way anova followed by Tukey post hoc test, […], *p<0.05)

[6] = target: T2, recombinant neprilysin (Homo sapiens, UniProt P08473); assay: Fluorogenic substrate enzymatic assay, neprilysin; format: biochemical; conditions: preincubation with different concentrations of Sin-1
T2 construct: purchased R&D
Protocol: (§1) Afterwards the substrate was added to a final concentration of 10 μM. The hydrolysis of substrate V was measured based on the increase of fluorescence (exitation 320 nm/emission 405 nm) using a Spectrafluor Plus (Tecan, Austria) plate reader for a time period of up to 60 min in 1 min intervals at 37 C. Determination of IDE activity in mouse brain was performed using the fluorogenic peptide substrate 2-aminobenzoyl-[…]-ethylenediamine-2,4-dinitrophenyl (Bachem, Switzerland)^21. For that mice brains were homogenized in PBS containing 1 mM AEBSF, extracted with 1% Tx-100 and centrifuged at 100000×g for 30 min. 10 μg of supernatants were incubated with 25 μM phosphoramidon to inhibit endogenous neprilysin activity. The fluorogenic substrate was added to a final concentration of 20 μM and the resulting fluorescence signal was measured (excitation 320 nm/emission 413 nm) every 3 min for up to 2 h at 37° C. using a infinite 200 plate reader (Tecan, Austria). Evaluation was done within the linear range of the reaction.

[7] = target: T3, Aβ1-42 (Homo sapiens, UniProt P05067); assay: Aβ aggregation assay (SDS-PAGE, immunoblot 6E10); format: biochemical; conditions: for high molecular weight (SDS-resistant) aggregates of synthetic Aβ1-42 after incubation with the agent: 5 mM Sin-1 or 0.25 mM peroxynitrite, 18 h
T3 construct: Amyloid β 1-42 or Amyloid β 1-42 Y10A (both from rPeptide, Bogart, Ga., USA); host or cells: synthetic peptide
Protocol: (§2) (6B) Same assay as in A but samples were incubated for different time periods with PN.
(§3) Peptides were separated by 4-12% Nupage and blotted transferred nitrocelluse and incubated with antibody 6E10 (Signet). The remaining sample was stored at −20° C. and analyzed by mass spectrometry. In case of the time course experiment the reaction was stopped using Nupage sample buffer followed by incubation at 70 C for 5 min.
(§4) Aβ1-42, Aβ1-42 Y10F (Peptide Specialty Laboratories) were solubilized as previously described. For nitration samples were incubated with 0.25-0.5 mM peroxynitrate in water while vortexing. Aggregation was started by diluting samples to 25 μM using 50 mM Tris-HCl pH 7. Samples were separated by 4-12% NuPAGE and aggregates were detected using anti-body 6E10 (Signet) and 3-NTyr10-Aβ. Aggregation was expressed as a ratio between the signal above 30 kDa and the Aβ monomer, normalized to the 0 time point of Aβ1-42. Thioflavin T fluorescence assays were performed as described previously. Fluorescence was read at 446 nm (excitation) and 482 nm (emission) using a fluorescence spectrophotometer (Varian).

[8] = target: T1, recombinant IDE; assay: Immunoblot of IDE nitration after Sin-1 incubation; format: biochemical; conditions: Sin-1 incubated with purified recombinant IDE
[9] = target: T1, recombinant IDE; assay: Fluorogenic substrate enzymatic assay, IDE; format: biochemical; conditions: 1 mM Sin-1, 30 min preincubation
Protocol: as §1

[10] = test system: Aβ1-42; assay: Aβ aggregation assay (SDS-PAGE, immunoblot 6E10); format: biochemical, human; conditions: compared with Aβ1-42
Protocol: as §2, §3, §4

[11] = test system: Aβ1-42; assay: Thioflavin T aggregation assay; format: biochemical, human; conditions: peptide treated with peroxynitrite, compared with Aβ1-42
Protocol: as §4

[12] = target: T3, Aβ1-42; assay: In vitro Aβ1-42 aggregation with added nitrated Aβ1-42; format: biochemical; conditions: 25 μM Aβ1-42, 5 h, antibody IC16
[13] = APP/PS1 mice at 3 month of age, L-NIL orally in the water from 2-3 month

T3 sequence (P05067 672-713): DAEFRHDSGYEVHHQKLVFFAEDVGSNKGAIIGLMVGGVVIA
T2 sequence (P08473 whole entry, species assumed): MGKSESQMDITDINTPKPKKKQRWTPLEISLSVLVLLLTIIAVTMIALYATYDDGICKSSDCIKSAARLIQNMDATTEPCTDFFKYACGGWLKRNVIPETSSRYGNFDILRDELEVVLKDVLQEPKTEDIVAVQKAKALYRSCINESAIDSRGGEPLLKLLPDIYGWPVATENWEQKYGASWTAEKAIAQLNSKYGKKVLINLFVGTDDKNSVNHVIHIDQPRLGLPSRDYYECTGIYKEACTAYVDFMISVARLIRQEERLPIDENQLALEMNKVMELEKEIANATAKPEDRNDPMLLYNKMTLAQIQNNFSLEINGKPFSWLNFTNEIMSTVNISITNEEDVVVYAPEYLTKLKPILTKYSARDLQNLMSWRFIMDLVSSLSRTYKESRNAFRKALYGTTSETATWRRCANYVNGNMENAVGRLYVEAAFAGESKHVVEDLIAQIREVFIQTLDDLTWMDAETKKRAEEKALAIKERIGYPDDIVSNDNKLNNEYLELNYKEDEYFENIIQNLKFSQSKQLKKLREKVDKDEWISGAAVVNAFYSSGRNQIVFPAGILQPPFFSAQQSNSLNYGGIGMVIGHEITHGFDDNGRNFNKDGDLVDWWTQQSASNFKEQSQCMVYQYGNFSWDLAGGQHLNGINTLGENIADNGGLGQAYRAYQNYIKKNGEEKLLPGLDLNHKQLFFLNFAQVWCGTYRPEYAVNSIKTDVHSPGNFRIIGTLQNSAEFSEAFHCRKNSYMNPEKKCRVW

CC(=O)N[C@@H](C(=O)O)C(C)(C)SN=O (racemic) [SNAP]
Aβ1-42 phagocytosis ([1]; SNAP 100 μM): did not expose differences

CC(=N)NCCCC[C@H](N)C(=O)O [L-NIL, L-N6-(1-iminoethyl)-lysine]
working memory errors ([2]; APP/PS1 mice at 3 and 12 months of age (summary statement)): significant reduction
reference memory errors [2, 13]: protected
working memory errors [2, 13]: to some extent
reference memory errors ([2]; APP/PS1 mice at 12 month of age, L-NIL from 6-12 month (post plaque, therapeutic)): reversion of APP/PS1 phenotype
working and reference memory errors ([2]; APP/PS1 mice treated with L-NIL, age not stated (summary statement)): reduction
Aβ1-42 phagocytosis ([1]; L-NIL 10 μM): did not expose differences
levels of insoluble and soluble Aβ40 and Aβ42 by ELISA ([3]; 5 month old APP/PS1 mice preventively treated with L-NIL from 2-3 month): unable to detect any changes
insoluble Aβ by immunoblot and insoluble Aβ 1-40 and Aβ 1-42 by ELISA ([3]; 12 month old APP/PS1 mice, L-NIL from 6-12 month): strong reduction
LTP ([4]; APP/PS1 mice at 3 months of age (summary statement)): improvement
APP/PS1 induced reduction (suppression) of early and late phase hippocampal LTP ([4]; hippocampal slices of 3 month old mice, L-NIL from 2-3 month, 10 and after induction): completely prevented; also recorded: not existent

N=c1c[n+](N2CCOCC2)[n-]o1 [Sin-1, 3-morpholino-sydnonimine]
degradation of Aβ1-42 by IDE [5]: decreased degradation
activity of neprilysin [6]: could not detect any impact
high molecular weight (SDS-resistant) aggregates of synthetic Aβ1-42 after incubation with the agent [7]: strong induction; also recorded: increased generation
nitration of IDE (nitrotyrosine immunoblot) [8]: modifications of IDE detectable with an nitrotyrosine specific antibody
IDE activity [9]: almost complete inhibition

O=NOO [peroxynitrite]
high molecular weight (SDS-resistant) aggregates of synthetic Aβ1-42 after incubation with the agent [7]: increased generation
high molecular weight (SDS-resistant) aggregates of synthetic Aβ1-42 after incubation with the agent ([7]; listed as peroxynitrit): strong induction
increase of high molecular aggregates over time ([7]; within 24 h after peroxynitrite treatment): x-fold increase

Aβ42Y10A: modified human Aβ1-42, tyrosine at position 10 replaced by an alanine (SEQ ID NO. 2)
high molecular weight aggregates of the mutated peptide after incubation with peroxynitrite or Sin-1 [10]: reduced aggregation to the level of untreated Aβ1-42

Aβ42Y10F: Aβ1-42 peptide with a tyrosine to phenylalanine mutation at position 10
formation rate of β-sheet amyloid fibril structures (thioflavin T) [11]: prevented
high molecular weight aggregates of the mutated peptide after incubation with peroxynitrite or Sin-1 [10]: reduced aggregation to the level of untreated Aβ1-42

nitrated Aβ1-42: synthetic Aβ1-42 nitrated at tyrosine 10 by peroxynitrite treatment
formation rate of β-sheet amyloid fibril structures (thioflavin T) [11]: increased formation rate
formation of Aβ oligomers on addition of small amounts of nitrated Aβ1-42 species [12]: increased formation
